The test system of data set [1] is common carp hepatic S9 fraction. Briefly: Metabolite formation in common carp hepatic S9 fraction (not induced and BNF induced). The note with it: for Metabolites Concentration, BNF Fish S9: carp induced with 50 mg/kg BNF; for Metabolites Concentration, BNF Fish S9 / Metabolites Concentration, Fish S9: 2 µM parent pharmaceutical, 1 h, 21 °C; for Metabolites Concentration, Fish S9: not induced carp, 1 mg protein. The data set is classed as in vitro ADME, common carp (Cyprinus carpio). As for the experimental part: Fish. Fish were collected from a fishpond with a low concentration level of pharmaceuticals (305-880 ng/POCIS). Thus, fish were stocked in the pond for 1 year with a natural photoperiod. The fish were allowed to eat and swim freely in the pond without interaction with humans and avoiding stress conditions. In total, 1-year-old common […] = 12) weighing 695 ± 116 g (mean ± standard deviation) and length 330 ± 19 mm were collected during spring 2018. Additionally, β-naphtaflavone (BNF) was administrated into four fish at levels of 50 mg/kg of BNF in corn oil. Following administration, individuals were kept in a separate aquaria for 48 h, in order to achieve CYP1A1 induction. The fish were then sacrificed according to the ethical rules of the EU harmonized Animal Welfare Act of the Czech Republic. The unit is licensed (No. 53100/2013-MZE-17214), according to the Czech National Directive (the Law against Animal Cruelty, No. 246/1992). Before sampling, fish were anesthetized in an ice bath, and their spinal cords were immediately cut. Fish was bloodless and hepatic tissues were collected and stored at -80 °C before use for the preparation of S9 fraction. Hepatic tissue (approx. 1.2 g) of twelve individual common […] two individual sheep were homogenized in 10 mM Tris-HCl buffer, pH 7.4, containing 250 mM sucrose separately using an T-25 Ultra Turrax homogenizer Ika (Staufen, Germany) followed by centrifugation at 10,000× g for 15 min at 4 °C to obtain S9 fractions. The protein concentration in S9 fractions was determined by the colorimetric method according to Smith et al. at 595 nm. The S9 fractions were diluted to 10 mg/mL protein content. To account for the gender effect, four piscine S9 fractions were combined in one pool with the same ratio of males/females (1:1). The incubations were performed using three S9 pools from common carp. One pool was prepared from ovine S9 fractions. […] According to Hou et al. […] The concentrations of the parent compound and its main metabolites (metoprolol acid, N-desmethylcitalopram, norsertraline, and O-desmethylvenlafaxine) were determined by LC HRMS (Thermo Fisher Scientific, San Jose, CA, USA). The chromatographic separation was performed on a Hypersil Gold aQ analytical column (50 × 2.1 mm; 5 μm particles, Thermo Fisher Scientific). […] A heated electrospray ionization (HESI) source was used for the ionization of the target compounds with a spray voltage of 3.5 kV and nitrogen as the sheath gas (40 arbitrary units), auxiliary gas (10 arbitrary units), and collision gas. The full scan mode with high resolution (70000 FWHM) in range 100-750 m/z was used with the AGC target 3e6, and the maximum filling time 50 ms. Data acquisition was performed with Xcalibur 4.3 Software, and data processing was performed using TraceFinder 3.3 Software (both Thermo Fisher Scientific, San Jose, CA, USA). Internal standard and matrix matching standard methods were used for the quantification of target analytes.

For data set [2], the system named is sheep hepatic S9 fraction. Briefly: Metabolite formation in sheep hepatic S9 fraction. It counts as in vitro ADME. As to conditions: 2 µM parent pharmaceutical, 1 mg protein, 1 h, 37 °C. As for the experimental part: Sheep. Hepatic tissue from one male and one female Suffolk sheep (age, 2 years; weight 70-80 kg) were collected at a slaughterhouse in Vodňany town, Czech Republic, and stored at -80 °C. Sheep is a relatively new animal model, which has started to be used in veterinarian investigations related to drug-drug interactions, as well as for effective therapy and the limitation of drug-resistance development. Sheep phase I biotransformation enzymes, including CYPs-dependent metabolic activities in sheep liver, were already characterized by Szotakova et al., Maté et al. and Stuchlíková et al.. The use of the S9 fraction from sheep hepatic tissue could represent the mammalian metabolic system in relation to selected pharmaceuticals. […] The protein concentration in S9 fractions was determined by the colorimetric method according to Smith et al. at 595 nm. […] The concentrations of the parent compound and its main metabolites (metoprolol acid, N-desmethylcitalopram, norsertraline, and O-desmethylvenlafaxine) were determined by LC HRMS (Thermo Fisher Scientific, San Jose, CA, USA). […] Internal standard and matrix matching standard methods were used for the quantification of target analytes.

The nature of data set [3]: Kinetics of N-desmethylcitalopram formation from citalopram in common carp S9. The data set is classed as in vitro ADME, common carp (Cyprinus carpio). The note with it: common carp (Cyprinus carpio), hepatic S9 fraction, Michaelis-Menten fit, citalopram 0.01-100 μM. The protocol: (§1) Kinetic analysis using multiple substrate concentrations was conducted only with citalopram using the same procedure as above-described. The substrate concentrations were 0.01, 0.03, 0.1, 1, 10, 50, 75, and 100 μM of citalopram.
(§2) The data were analyzed using non-linear regression analysis (GraphPad Prism version 4.0 for Windows, GraphPad Software, San Diego, CA, USA). The data were fitted to the Michaelis-Menten equation and two enzyme models. The goodness of fit was assessed by comparison of the coefficient of determination (r^2). Visual analysis of Eadie-Hofstee plots was used to estimate whether one or more enzymes participate in the reaction.

Data set [4] deals with common carp hepatic S9 fraction. Described as above. It counts as in vitro ADME, common carp (Cyprinus carpio). As to conditions: Michaelis-Menten fit, citalopram 0.01-100 μM. As for the experimental part: as §1, §2
The test system of the next data set is human hepatic microsomes. Further details: method as in PMID 10494454. As to conditions: cited from earlier work.
On the set-up of data set [5]: method as in PMID 29729738. As to conditions: fish from pond receiving WWTP water; cited from earlier work.
A short description of data set [6]: Control incubation of pharmaceutical without S9 fraction. As to conditions: 2 µM parent pharmaceutical, no S9, 1 h.
Method: To investigate the formation of metabolites, one concentration of pharmaceutical (2 μM) was incubated with 1 mg of protein in piscine or ovine S9 fraction, 1 mM NADPH, and 0.3 mM UDPGA in a potassium phosphate buffer (50 mM, 7.4 pH) (Table 2). The total volume of each incubation was 0.5 mL. The incubation mixture was vortexed and incubated for 1 h in a water bath (at 21 °C for fish and 37 °C for ovine). Then, the reaction was stopped by the addition of 0.5 mL ice-cold methanol, vortexed, and centrifuged at 10,000× g for 10 min. […] Sheep hepatic S9 fraction was used as a positive control, because sheep S9 fractions are known to metabolise the studied compounds. […] The supernatant was filtrated (0.45 μm regenerated cellulose filter) and the internal standard for chemical analyses was added. […] S9 fractions with TNBP were incubated under the same conditions as other pharmaceuticals.
The test system of another data set is CYP1A1. Briefly: Inhibition of N-desmethylcitalopram formation by ellipticine in common carp S9. The data set is classed as biochemical, common carp (Cyprinus carpio). As to conditions: citalopram 5 μM. The protocol: Ellipticine (a specific inhibitor of mammalian and piscine CYP1A1) was used to investigate if CYP1A1 was responsible for metabolite formation. Incubations were performed only with citalopram. Three concentrations of ellipticine were used in the final incubations: 0.125, 1.25, and 12.5 μM. The choice of these concentrations was based on the previous results. The degree of inhibition was assessed by comparison of metabolite formation in the presence and absence of inhibitor. The incubation without inhibitor contained the same amount of methanol as in the incubations with inhibitor (0.5% from total incubation volume).

The subject of another data set is CYP1A. Further details: method as in PMID 29704845. The note with it: rainbow trout microsomal fraction; cited from earlier work.
The next data set concerns CYP3A-like. Further details: method as in PMID 29704845. As to conditions: rainbow trout microsomal fraction; cited from earlier work.

Like-named read-outs stand apart in the source and are kept apart here.

For the compound `CC(C)NCC(O)COc1ccc(CC(=O)O)cc1` (stereo not shown) [Metoprolol acid, metoprolol acid], in data set [1], the “Metabolite formation, fold reduction in induced fish vs not induced S9 fraction” value was determined as 3.4 fold.

In the case of `CNCCCC1(c2ccc(F)cc2)OCc2cc(C#N)ccc21` (stereo not shown) [N-desmethylcitalopram], in data set [2], the “Metabolites Concentration, Sheep S9” value amounted to 2309 pmol/min/mg. For the same compound, in [1] (BNF induced vs not induced carp S9), the “Metabolite formation, fold higher in induced fish than in not induced S9 fraction” value worked out at 5.3 fold. Moreover, in data set [1], the “Metabolites Concentration, BNF Fish S9” value stood at 1557 pmol/min/mg and the “Metabolites Concentration, Fish S9” value is recorded as 295 pmol/min/mg. The Michaelis-Menten constant (Km) in [3] was determined as 29.7 ± 4.6 µM. For the same compound, the “Vmax of N-desmethylcitalopram formation” value in data set [4] is recorded as 1781 ± 90 pmol/min/mg. Moreover, in the data set with human hepatic microsomes (monophasic model), the “Vmax for N-desmethylcitalopram, monophasic model” value is 183 to 281 pmol/min/mg. The “Average concentration in hepatic tissue of common carp” value in data set [5] is given as 2.6 ± 1.4 ng/g wet weight. Further, the “Metabolites Concentration, Control (without S9)” value in [6] is recorded as “<LOQ”.

Take `N[C@H]1CC[C@@H](c2ccc(Cl)c(Cl)c2)c2ccccc21` [Norsertraline, norsertraline]: in data set [1], the “Metabolite formation, fold higher in induced fish than in not induced S9 fraction” value was 1.7 fold.

Turning to `CN(C)CC(c1ccc(O)cc1)C1(O)CCCCC1` (stereo not shown) [O-desmethylvenlafaxine], in data set [2], the “Metabolites Concentration, Sheep S9” value amounted to 823 pmol/min/mg. Moreover, in data set [1], the “Metabolites Concentration, BNF Fish S9” value is “<LOQ” and the “Metabolites Concentration, Fish S9” value is reported as “<LOQ”. Moreover, in [6], the “Metabolites Concentration, Control (without S9)” value is listed as “<LOQ”.

For `CN(C)CCCC1(c2ccc(F)cc2)OCc2cc(C#N)ccc21` (stereo not shown) [citalopram, Citalopram], in the data set on human hepatic microsomes (biphasic model), the “Vmax of citalopram N-demethylation, first enzyme” value was 25 pmol/min/mg and the “Vmax of citalopram N-demethylation, second enzyme” value is 158 pmol/min/mg. The Km in the data set with human hepatic microsomes (biphasic model, read-out: Km of citalopram N-demethylation, first enzyme) was 17.3 µM. In addition, the Michaelis constant (Km) in the data set on human hepatic microsomes (biphasic model, read-out: Km of citalopram N-demethylation, second enzyme) was 185 µM. Moreover, in [5], the “Average concentration in hepatic tissue of common carp” value is reported as 3.1 ± 2.9 ng/g wet weight.

Turning to `Cc1c2ccncc2c(C)c2c1[nH]c1ccccc12` [ellipticine], the “Reduction of N-desmethylcitalopram formation” value with CYP1A1 (0.125 μM ellipticine) is on record as 30 ± 10%. The “Inhibition of N-desmethylcitalopram formation” value in the data set on CYP1A1 (1.25 μM ellipticine) and in the data set with CYP1A1 (12.5 μM ellipticine) was “completely inhibited” each time.

As to `COc1ccc(C(CN(C)C)C2(O)CCCCC2)cc1` (stereo not shown) [venlafaxine], the “Effect on EROD activity” value with CYP1A is listed as “did not alter”. Further, the “Effect on BFCOD activity” value in the data set with CYP3A-like is listed as “did not alter”.

(Values after paper PMC7321103, “In Vitro Metabolic Transformation of Pharmaceuticals by Hepatic S9 Fractions from Common Carp (Cyprinus carpio)” (Molecules, 2020).)
